Laboratory results published in paper PMC6471485, “Selective Inhibitors of a Human Prolyl Hydroxylase (OGFOD1) Involved in Ribosomal Decoding” (Chemistry (Weinheim an Der Bergstrasse, Germany), 2019).

Tests used:
KDM4A = molecular target: T1, KDM4A (Homo sapiens, UniProt O75164); test: KDM4A formaldehyde dehydrogenase (FDH) assay; format: biochemical
T1 sequence (O75164 1-1064): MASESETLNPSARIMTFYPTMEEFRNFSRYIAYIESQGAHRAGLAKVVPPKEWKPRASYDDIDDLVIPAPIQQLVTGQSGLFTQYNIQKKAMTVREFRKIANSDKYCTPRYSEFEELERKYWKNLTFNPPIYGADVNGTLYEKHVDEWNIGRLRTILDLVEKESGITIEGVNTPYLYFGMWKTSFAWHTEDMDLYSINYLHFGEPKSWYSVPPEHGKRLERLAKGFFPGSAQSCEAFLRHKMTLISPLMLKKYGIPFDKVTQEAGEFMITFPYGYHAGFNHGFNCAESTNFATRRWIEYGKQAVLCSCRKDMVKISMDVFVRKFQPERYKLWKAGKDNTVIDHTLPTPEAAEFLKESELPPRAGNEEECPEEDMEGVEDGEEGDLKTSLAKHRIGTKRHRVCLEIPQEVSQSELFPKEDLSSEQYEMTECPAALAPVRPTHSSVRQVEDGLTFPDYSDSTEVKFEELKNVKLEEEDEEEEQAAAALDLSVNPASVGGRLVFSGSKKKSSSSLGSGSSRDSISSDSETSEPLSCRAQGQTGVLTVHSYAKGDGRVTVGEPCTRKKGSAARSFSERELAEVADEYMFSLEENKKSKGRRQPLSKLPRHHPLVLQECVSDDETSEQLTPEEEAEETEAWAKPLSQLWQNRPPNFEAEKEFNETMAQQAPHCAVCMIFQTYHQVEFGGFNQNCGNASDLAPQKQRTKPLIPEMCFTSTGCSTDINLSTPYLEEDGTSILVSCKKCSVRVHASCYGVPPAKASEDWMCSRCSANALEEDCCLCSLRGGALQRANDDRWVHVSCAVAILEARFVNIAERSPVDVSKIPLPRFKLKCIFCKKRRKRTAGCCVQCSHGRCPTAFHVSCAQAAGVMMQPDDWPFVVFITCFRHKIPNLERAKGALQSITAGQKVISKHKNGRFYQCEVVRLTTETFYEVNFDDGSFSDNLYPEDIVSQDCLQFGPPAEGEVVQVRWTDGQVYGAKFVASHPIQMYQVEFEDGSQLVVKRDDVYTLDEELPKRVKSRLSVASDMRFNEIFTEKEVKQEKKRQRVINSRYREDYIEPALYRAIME
Experimental: reactions were quenched after 4 min. KDM4A inhibition was tested as described previously using a formaldehyde dehydrogenase (FDH) assay.[9] JARID1B and JARID1C inhibition was tested as described previously using reported AlphaScreen-based assays.[10] MINA531-464 and NO66116-641 were cloned into pFB-LIC-Bse, and the N-terminal His-tagged proteins were produced in Sf9 insect cells. The MINA53 peptide substrate Rpl27a […]
(Gly31 – Pro49 […]) and the NO66 peptide substrate Rpl8
(Asn205 – Thr224 […]) were synthesized by Peptide Protein
Research Ltd (Fareham, Hampshire, UK) to >95% purity. IC50 determinations were performed in 384-well polypropylene plates (Greiner Bio One, Cat Number 781096), and compound dispenses were performed using an ECHO 550 acoustic dispenser (Labcyte, Sunnyvale, CA).
NO66 (diluted to 375 nM in 50 mM MES pH 7.0, 150 mM NaCl) and MINA53 (diluted to 187.5 nM in 50 mM HEPES pH 7.5, 50 mM NaCl) were dispensed (40 µL) into 384-well compound plates using a multidrop combi reagent dispenser (Thermo Scientific, Code 5840300) with a small tube plastic tip dispensing cassette (Thermo Scientific, Code 24073290).
NO66 and MINA53 were pre-incubated with compound for 15 minutes, and the enzyme reaction initiated by dispensing 10 µL of substrate solution [250 µM (NH4)2Fe(SO4)2, 500 µM sodium ascorbate, 25 µM 2OG, 25 µM peptide] in optimized enzyme buffer. […]

[1] = system: PHD enzymes in HeLa cells; test: HIFα Western blot in HeLa cells (activity of PHD enzymes in cells); format: cell-based, human; details: HeLa cells treated 5 h, anti-HIF-1α Western blot
Experimental: supplemented with 80 µM Zn(II), 70 µM of inhibitor, all in 50 mM Tris-d11, pH 7.5, 10 % D2O, […]
Cell Culture and Immunoblotting
HeLa cells were cultured in DMEM media supplemented with 10 % fetal bovine serum, 4 mM L-glutamine, 100 U/mL penicillin, and 100 µg/mL streptomycin. Cells were treated with the indicated compounds, prepared in 1% DMSO, for 5 h. Following a PBS buffer rinse, cells were lysed in urea/SDS buffer supplemented with 1 mM dithiothreitol. Cell extracts were analyzed by SDS-PAGE, electroblotted onto PVDF membranes (Millipore) and probed with anti-HIF-1α antibody (clone 54, BD Transduction Laboratories) at 1:1000 dilution for 1 h at room temperature. The HRP-conjugated secondary antibody was then applied at room temperature for 1 h. Target proteins were detected with SuperSignal Chemiluminescent […]
ADMET in vitro Predictors
S9 liver microsome stability assays and MDCK-MDR1 efflux assays were carried out for CCT3 and CCT4 by Cyprotex (UK). Additional details are provided later in the Supporting

Row | Structure (SMILES) | IC50 (KDM4A) [µM] | HIFα stabilization in HeLa cells, in words [1]
1 | Cn1c(O)c(C(=O)CCc2ccccc2)c(=O)n(C)c1=O [compound 26] | > 100 | did not stabilize HIFα
2 | Cn1c(O)c(C(=O)CCc2cccs2)c(=O)n(C)c1=O [compound 42] | > 100 | did not stabilize HIFα
